These are literature values, as cited in patent US7446098B2, “Combination therapy for treating protein deficiencies” (Mount Sinai School of Medicine of New York University, priority 2003, dated 2008).

For one data set, the target named is T1, mutant (R301Q) α-Gal A (Homo sapiens, UniProt P06280, R301Q).
T1 construct: expressed in transfected cells; host or cells: transgenic mice (major organs)
T1 sequence (P06280 32-429 R301Q): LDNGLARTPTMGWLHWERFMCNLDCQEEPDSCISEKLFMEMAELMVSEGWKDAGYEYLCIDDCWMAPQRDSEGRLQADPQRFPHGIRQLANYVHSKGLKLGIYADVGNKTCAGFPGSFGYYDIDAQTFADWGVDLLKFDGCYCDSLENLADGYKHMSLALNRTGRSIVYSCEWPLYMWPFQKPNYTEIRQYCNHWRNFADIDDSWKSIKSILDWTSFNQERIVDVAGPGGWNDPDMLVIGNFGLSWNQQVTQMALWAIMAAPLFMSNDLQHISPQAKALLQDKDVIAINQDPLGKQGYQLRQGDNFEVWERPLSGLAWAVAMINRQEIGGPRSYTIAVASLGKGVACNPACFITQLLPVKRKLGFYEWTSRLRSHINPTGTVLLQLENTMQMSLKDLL
Particulars: oral administration; transgenic mice overexpressing mutant (R301Q) α-Gal A; cited from earlier work.

Another data set deals with T2, wild-type α-Gal A (Homo sapiens, UniProt P06280).
T2 construct: expressed in transfected cells; host or cells: COS-7
T2 sequence (P06280 32-429): T1 sequence (P06280 32-429 R301Q) with Q270R
Particulars: transfected COS-7 cells; cited from earlier work.

Data set [1] deals with mutant α-Gal A (R301Q or Q279E). The following applies: lymphoblasts from Fabry patients with R301Q or Q279E mutations; cited from earlier work.
For a further data set, the target named is T3, mutant α-Gal A (R301Q) (Homo sapiens, UniProt P06280, R301Q).
T3 sequence (P06280 32-429 R301Q): T1 sequence (P06280 32-429 R301Q)
The following applies: neutral pH; cited from earlier work.

Changes are numbered by the printed parent chain.

Consider `OC[C@H]1NC[C@H](O)[C@@H](O)[C@H]1O` [DGJ, 1-deoxygalactonojirimycin], for which the “enzyme activity in major organs” value on mutant (R301Q) α-Gal A is given as “substantially elevated”. Also, at wild-type α-Gal A, the “activity of wild-type α-Gal A” value is given as “able to increase” and the “amount of wild-type α-Gal A” value was “able to increase”. Also, the “mutant enzyme activity in lymphoblasts” value in data set [1] was “enhanced”. The “in vitro stability of mutant α-Gal A (R301Q)” value at mutant α-Gal A (R301Q) was “effectively increased”.
